Consider 2 compounds from patent US20070010541A1, “Methods for treating vascular diseases” (The General Hospital Corporation, priority 2003, published 2007).

For one assay, the system named is grl−/− embryos. The experiment in a line: Whole-organism chemical suppressor screen: suppression of the gridlock phenotype, circulation to the tail. To be noted: for suppression of the gridlock phenotype (restoring circulation to the tail): grl−/− embryos in 96-well plates, circulation examined after 48 hours of development. The assay is classed as in vivo, zebrafish. As to the method: We arrayed grl−/− embryos in 96-well plates, exposed them to small molecules from a structurally-diverse chemical library, and examined their circulation after 48 hours of development. The compounds were purchased as 5 mg/mL stock solutions in DMSO from Cambridge Chemical.
Two of 5,000 small molecules examined suppress the gridlock phenotype in grl−/− embryos, restoring circulation to the tail (FIG. 1B). We confirmed the functional restoration of the aorta by microangiography (FIGS. 1A-B) and histology (FIGS. 1E-F).
Angioblasts in zebrafish are first evident around 14 hours postfertilization (hpf) and begin to aggregate at the midline by 16 hpf (Eriksson et al., J. Morphol. 244(3):167-176, 2000; Fouquet et al., Dev. Biol. 183(1):37-48, 1997). The lumen of the aorta begins to form in the posterior trunk at 17.5 hpf, but is not complete until just prior to the initiation of circulation 24 hpf. The critical period for gs4012 suppression is between 12 and 24 hpf (FIG. 2A).
Similarly, when gs4012 is added during gastrulation and washed away at later and later timepoints, the effectiveness of suppression is increased, reaching maximal suppression by […].

For a further assay, the system named is VEGF. The experiment in a line: Real-time PCR quantitation of gene expression after gs4012 exposure. The assay is classed as in vivo, zebrafish. To be noted: 24 hpf. As to the method:
In the case of real-time PCR, groups of 20 grl−/− embryos are left untreated or treated with a gridlock suppressor. At 24 hours post fertilization, total RNA can be extracted using the Trizol method. Equivalent amounts of total RNA from each sample can be reverse transcribed into cDNA. This cDNA can serve as template for real-time PCR to determine the relative expression quantities for the genes listed above. RT-PCR can be performed with an Applied Biosystems Sequence Detection System 7000. Taqman probes and primers can be designed using zebrafish genomic sequences made publicly available by the Wellcome Trust Sanger Institute.
We used real-time PCR to quantitate the expression of several genes believed to play roles in angioblast cell fate determination or migration. […] VEGF plays an important role in formation of the aorta. VEGF122 expression in the Xenopus hypochord acts as a chemoattractant, stimulating angioblast migration to the midline prior to aorta formation (Cleaver et al., Development 125(19):3905-3914, 1998). […]

As for `O=[N+]([O-])c1ccc(SCCc2ccncc2)cc1` [gs3999], the “suppression of the gridlock phenotype (restoring circulation to the tail)” value in the assay with grl−/− embryos is reported as “identified as gridlock suppressors”.

For `COc1ccc(SCCc2ccncc2)cc1` [gs4012], in the assay with VEGF, the VEGF expression entry is recorded as “upregulated”. The “time at which maximal suppression is reached” value in the assay with grl−/− embryos (added during gastrulation and washed away at later timepoints) is recorded as at most 30 hpf. Besides, in the assay on grl−/− embryos (after removal of suppressor), the “reversibility of suppression after removal of the suppressor” value is on record as “suppression is irreversible” and the “viability of rescued mutants” value was “remain viable to adulthood”. The “suppression of the gridlock phenotype (restoring circulation to the tail)” value in the assay with grl−/− embryos is “identified as gridlock suppressors”. Further, the “relative potency as gridlock suppressor” value in the assay with grl−/− embryos (grl−/− embryos, dose response) is listed as “more potent suppressor than gs3999”. The “suppression when treatment begins after 24 hpf” value with grl−/− embryos (treatment begins after 24 hpf) is recorded as “Little or no suppression”.
